Biological target: T1, CXCR7 (Homo sapiens, UniProt P25106)
T1 construct: expressed in transfected cells; host or cells: CHO cells (CHO-CXCR7), transgenes maintained with Hygromycin B and G418
Test: CXCR7 β-arrestin recruitment assay in CHO-CXCR7 cells (ProLink/EA β-galactosidase complementation), induced by human SDF-1a
Format: cell-based
Conditions: assay buffer, SDF-1a at EC50 concentration
Method in brief: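 CHO cells co-expressing ProLink-tagged CXCR7 and β-arrestin-EA were pre-plated overnight, then given compound and human SDF-1α at its same-day EC50. After 1.5 h at 37 °C, complemented β-galactosidase was read from 0.4 mM 3-carboxyumbelliferyl β-D-galactopyranoside (30 min, 37 °C; ex 360/em 465 nm). IC50 by 3-parameter fit.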

T1 sequence (P25106 whole entry): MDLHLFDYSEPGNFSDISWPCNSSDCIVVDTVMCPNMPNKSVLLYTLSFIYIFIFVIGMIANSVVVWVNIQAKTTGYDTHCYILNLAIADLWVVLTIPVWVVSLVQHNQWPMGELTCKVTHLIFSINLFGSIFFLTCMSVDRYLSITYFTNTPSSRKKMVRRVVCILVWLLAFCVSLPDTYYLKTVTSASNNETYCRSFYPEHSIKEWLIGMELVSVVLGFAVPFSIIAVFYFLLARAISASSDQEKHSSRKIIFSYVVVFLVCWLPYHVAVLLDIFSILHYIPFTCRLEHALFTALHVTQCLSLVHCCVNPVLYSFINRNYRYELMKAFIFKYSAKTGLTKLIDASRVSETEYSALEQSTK

| IC50 | Compound |
| --- | --- |
| 5 to 100 nM | CC1(C)CC(N2CC(CC(=O)NC(C)(C)c3ccccn3)(NC(=O)c3cc(-c4ccc(F)cc4F)on3)C2)CCO1 (stereo not drawn) [Example 1.013] |
| 100 to 1000 nM | Cc1cc(C)nc(C(C)(C)NC(=O)CC2(NC(=O)c3nnc(-c4ccc(F)cc4F)o3)CN([C@H]3CC[C@@](C)(O)CC3)C2)n1 [Example 1.057] |
| < 5 nM | CC(C)(NC(=O)CC1(NC(=O)c2cc(-c3ccc(F)cc3F)on2)CN([C@H]2CC[C@@](C)(O)CC2)C1)c1cc(Cl)ccc1Cl [Example 1.085] |
| 5 to 100 nM | CC(C)(NC(=O)CC1(NC(=O)c2cc(-c3ccc(F)cc3F)on2)CN([C@H]2CC[C@](C)(O)CC2)C1)c1cccc(C2CC2)c1 [Example 1.144] |
| 5 to 100 nM | COc1cccnc1C(C)(C)NC(=O)CC1(NC(=O)c2nnc(-c3ccc(F)cc3F)s2)CN([C@H]2CC[C@](C)(O)CC2)C1 [Example 1.009] |
| 5 to 100 nM | CC[C@H](NC(=O)CC1(NC(=O)c2cc(-c3ccc(F)cc3F)on2)CN(C2CCCCC2)C1)c1ccccc1 [Example 1.304] |
| 5 to 100 nM | COc1cccc(C(C)(C)NC(=O)CC2(NC(=O)c3cc(-c4ccc(F)cc4F)on3)CN([C@H]3CC[C@@](C)(O)CC3)C2)c1 [Example 1.238] |
| 5 to 100 nM | C[C@]1(O)CC[C@H](N2CC(CC(=O)NC3(c4ncccn4)CC3)(NC(=O)c3cc(-c4ccc(F)cc4F)on3)C2)CC1 [Example 1.356] |
| 100 to 1000 nM | CC(C)(O)CN1CC(CC(=O)NC(C)(C)c2ccc(F)cc2)(NC(=O)c2cc(-c3ccc(F)cc3F)on2)C1 [Example 1.248] |
| 100 to 1000 nM | CC(C)(NC(=O)CC1(NC(=O)c2cc(-c3ccc(F)cc3F)on2)CN(CC2CCOCC2)C1)c1ccccn1 [Example 1.222] |
| < 5 nM | CC(C)(NC(=O)CC1(NC(=O)c2cc(-c3ccc(F)cc3F)on2)CN(C2CCCCC2)C1)c1ccnc2[nH]ccc12 [Example 1.082] |
| < 5 nM | Cc1ccccc1C(C)(C)NC(=O)CC1(NC(=O)c2cc(-c3ccc(F)cc3F)on2)CN([C@H]2CC[C@](C)(O)CC2)C1 [Example 1.215] |
| 100 to 1000 nM | COc1cc(C(C)(C)NC(=O)CC2(NC(=O)c3cc(-c4ccc(F)cc4F)on3)CN(CC(C)(C)O)C2)ccn1 [Example 1.171] |
| 5 to 100 nM | CC(C)(NC(=O)CC1(NC(=O)c2cc(-c3ccc(F)cc3F)on2)CN(C2CCC(O)CC2)C1)c1ccccn1 (stereo not drawn) [Example 1.300] |
| 5 to 100 nM | CC(C)(NC(=O)CC1(NC(=O)c2cc(-c3ccc(F)cc3F)on2)CN(CC2CC2)C1)c1cccc(Cl)c1 [Example 1.113] |
| < 5 nM | Cc1cc(C)nc(C(C)(C)NC(=O)CC2(NC(=O)c3cc(-c4ccc(F)cc4F)on3)CN([C@H]3CC[C@](C)(O)CC3)C2)c1 [Example 1.106] |
| 5 to 100 nM | CC(C)(NC(=O)CC1(NC(=O)c2cc(-c3ccc(F)cc3F)on2)CN(CC2CCC2)C1)c1ccccn1 [Example 1.020] |
| 100 to 1000 nM | O=C(CC1(NC(=O)c2cc(-c3ccc(F)cc3F)on2)CN(CC2CC2)C1)NC1(c2ccccc2)CC1 [Example 1.321] |
